From patent US11154571B2, “Exosomes sourced from granulocytic myeloid-derived suppressor cells and application thereof” (Jiangsu University, priority 2015, dated 2021)

Target: T1, Arg-1 (Mus musculus, UniProt Q61176)
T1 construct: endogenous in cells; host or cells: primary G-MDSCs sorted from the spleen of tumor-bearing or CIA mice, and exosomes from their culture supernatant
T1 sequence (Q61176 1-323): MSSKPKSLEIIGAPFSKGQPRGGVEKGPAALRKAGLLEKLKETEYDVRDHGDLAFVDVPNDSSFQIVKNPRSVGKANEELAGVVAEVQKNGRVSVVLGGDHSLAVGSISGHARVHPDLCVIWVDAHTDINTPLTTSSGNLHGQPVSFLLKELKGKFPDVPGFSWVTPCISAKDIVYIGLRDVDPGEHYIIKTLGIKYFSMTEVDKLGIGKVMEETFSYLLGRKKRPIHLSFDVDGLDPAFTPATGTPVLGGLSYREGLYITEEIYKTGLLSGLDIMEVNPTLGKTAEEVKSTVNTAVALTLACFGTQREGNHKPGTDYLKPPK
Assay: Arg-1 activity detection (arginase assay kit)
Format: biochemical
Conditions: nor-NOHA (5 mg/ml in DMSO) added to G-MDSC culture; FIG. 7A
Protocol: (1) The activity detection of Arg-1 in G-MDSC exo and inhibition effect of nor-NOHA on the Arg-1 activity in G-MDSC exo: The sorted G-MDSCs are same to example 1. Inoculate 2×10^6 G-MDSCs per well in 24 well plate, and add 1 ml of RPMI-1640 medium and culture at 37° C., 5% CO2 for 16 h. The culture supernatant is collected and used for preparing G-MDSC exo, then the G-MDSC exo was lysed (the same with example 2), and the G-MDSC exo activity was measured with the arginase assay kit from eBioscience company. 5 mg of nor-NOHA powder was dissolved with 1 ml of DMSO, 5 mg/ml nor-NOHA solution is prepared. Experimental groups were treated as follows:
G-MDSC group: G-MDSCs were cultured, and cells are collected.
(G-MDSC+DMSO) group: G-MDSC is cultured after adding […] of DMSO, and cells were collected.
(G-MDSC+NN) group: G-MDSC is cultured after adding […] of nor-NOHA, and cells were collected.
G-MDSC exo group: G-MDSC is cultured, culture supernatant was collected.
(G-MDSC+DMSO) exo group: G-MDSC is cultured after adding […] of DMSO, culture supernatant was collected.
(G-MDSC+NN) exo group: G-MDSC is cultured after adding […] of nor-NOHA, culture supernatant was collected.

SMILES: N=C(NO)NCC[C@H](N)C(=O)O [NN, nor-NOHA]
- inhibition of Arg-1 activity in G-MDSC exo: could be inhibited
